Results from patent US20100041760A1, “MONOARYL AMINOTETRALINES” (priority 2008, published 2010).
One block for each compound: values may come before it.

How the values were obtained:
human CRTH2 = target: T1, human CRTH2 (Homo sapiens, UniProt Q9Y5Y4); experiment: Human CRTH2 Receptor Binding Assay (whole cell, [3H]ramatroban competition); parameters: expressed in transfected cells; host or cells: CHO-K1 (co-transfected with G-alpha16); conditions: CHO-K1 cells expressing human CRTH2 and G-alpha16; 20 nM [3H]ramatroban; 1 hour, room temperature
T1 sequence (Q9Y5Y4 1-395): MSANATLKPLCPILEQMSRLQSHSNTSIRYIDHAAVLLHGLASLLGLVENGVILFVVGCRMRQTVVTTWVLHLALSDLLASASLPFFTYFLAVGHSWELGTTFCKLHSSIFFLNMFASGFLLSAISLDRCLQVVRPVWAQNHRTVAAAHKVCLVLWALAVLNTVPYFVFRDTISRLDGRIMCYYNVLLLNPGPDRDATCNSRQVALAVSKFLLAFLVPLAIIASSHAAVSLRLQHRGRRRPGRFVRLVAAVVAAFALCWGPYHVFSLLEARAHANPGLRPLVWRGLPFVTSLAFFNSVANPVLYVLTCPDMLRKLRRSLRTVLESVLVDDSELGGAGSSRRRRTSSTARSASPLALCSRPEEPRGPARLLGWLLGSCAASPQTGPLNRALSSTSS
From the text: A whole cell receptor binding assay using [^3H]ramatroban as the competing radioactive ligand was employed to evaluate the compound binding activity to human CRTH2. The radioactive ligand [^3H]ramatroban was synthesized according to Sugimoto et. al. (Eur. J. Pharmacol. 524, 30-37, 2005) to a specific activity of 42 Ci/mmol.
A cell line stably expressing human CRTH2 was established by transfecting CHO-K1 cells with two mammalian expression vectors that harbored human CRTH2 and G-alpha16 cDNAs, respectively, using FuGene® 6 transfection reagent (from Roche). Stable clones expressing CRTH2 were selected by staining each clone with BM16 (BD Pharmingen™ from BD Biosciences, a division of Becton, Dickinson and Company), which is a rat monoclonal antibody to human CRTH2. The cells were maintained as monolayer cultures in Ham's F-12 medium containing 10% fetal bovine serum, 100 units/mL penicillin, 100 μg/mL streptomycin, 2 mM glutamine, 0.5 mg/mL G418 (geneticin) for CRTH2, and 0.2 mg/mL hygromycin-B (for G-alpha 16). For whole cell receptor binding assay, the monolayer cells were rinsed once with PBS (phosphate buffered saline), dissociated using ethylenediaminetetraacetate (Versene™ EDTA from Lonza Inc.), and suspended in PBS containing 10 mM MgCl2 and 0.06% BSA (bovine serum albumin) at 1.5×10^6 cells/mL.
The binding reactions (0.2 mL) were performed in 96-well plates at room temperature in PBS containing 1.5×10^5 cells, 10 mM MgCl2, 0.06% BSA, 20 nM [^3H]ramatroban, and test compound at various concentrations. After 1 hour of binding reactions, the cells were harvested on GF™/B filter microplates (microtiter plates with embedded glass fiber from PerkinElmer, Inc.) and washed 5 times with PBS using a Filtermate™ Harvester (a cell harvester that harvests and washes cells from microplates from PerkinElmer, Inc.). The radioactivities bound to the cells were determined using a microplate scintillation counter (TopCount® NXT, from PerkinElmer, Inc.) after adding 50 μL of Microscint™ 20 scintillation fluid (from PerkinElmer, Inc.) to each well of the filter plates. The radioactivity from non-specific binding was determined by replacing compound with 10 μM of 15(R)-15-methyl PGD2 (from Cayman Chemical Company) in the reaction mixtures. The radioactivity bound to the cells in the absence of compound (total binding) was determined by replacing compound with 0.25% of DMSO (dimethyl sulfoxide) in the reaction mixture. Specific binding data were obtained by subtracting the radioactivity of non-specific binding from each binding data.
(§1) The IC50 value is defined as the concentration of the tested compound that is required for 50% inhibition of total specific binding. In order to calculate the IC50 value, the percent inhibition data were determined for 7 concentrations for each compound. The percent inhibition for a compound at each concentration was calculated according to the following formula, [1−(specific binding in the presence of compound)/(total specific binding)]×100. The IC50 value was then obtained by fitting the percent inhibition data to a sigmoidal dose-response (4 parameter logistic) model in the XLfit® software Excel add-in program [from ID Business Solutions Ltd., model 205, where F(x)=(A+(B−A)/(1+((C/x)̂D)))].

[1] = target: T2, thromboxane A2 receptor (TP) (Homo sapiens, UniProt P21731); experiment: Human Thromboxane A2 Receptor Binding Assay; conditions: human platelets; 10 nM [3H]SQ29548; 1 hour, room temperature
T2 construct: using human platelets as the source of the receptor; from tissue; host or cells: human platelets (whole platelets, 5x10^7 per well)
T2 sequence (P21731 1-343): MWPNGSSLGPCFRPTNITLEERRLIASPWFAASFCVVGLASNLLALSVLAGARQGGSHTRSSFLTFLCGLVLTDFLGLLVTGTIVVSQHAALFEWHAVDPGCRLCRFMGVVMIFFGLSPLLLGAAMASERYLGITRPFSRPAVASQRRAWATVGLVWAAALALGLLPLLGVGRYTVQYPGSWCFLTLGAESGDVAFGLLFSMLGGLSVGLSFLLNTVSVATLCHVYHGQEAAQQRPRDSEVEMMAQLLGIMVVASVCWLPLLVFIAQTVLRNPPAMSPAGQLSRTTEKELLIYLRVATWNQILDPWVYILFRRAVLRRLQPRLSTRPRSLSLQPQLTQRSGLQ
From the text: The thromboxane A2 receptor (TP) plays a key role in hemostasis as its abnormality leads to bleeding disorders. To avoid the potential liability of bleeding disorders, the binding activity of certain compounds of the present invention against TP was monitored by a receptor binding assay using human platelets as the source of the receptor and [^3H]SQ29548 (generically named (5Z)-[5,6-^3H]-7-[(1S,2R,3R,4R)-3-[[2-[(phenylamino)carbonyl]hydrazinyl]methyl]-7-oxabicyclo[2.2.1]hept-2-yl]-5-heptenoic acid, from PerkinElmer Inc.) as the competing radioactive ligand.
The TP binding reactions (0.2 mL) were performed in 96-well plates at room temperature in PBS containing 5×10^7 platelets, 10 mM MgCl2, 0.06% BSA, 10 nM [^3H]SQ29548, and the test compound at various concentrations. After 1 hour of binding reactions, the platelets were harvested on GF/B filter plates (as previously described from PerkinElmer Inc.) and washed 5 times with PBS using a Filtermate™ Harvester (as previously described from PerkinElmer Inc.). The radioactivities bound to the platelets were determined using a microplate scintillation counter (TopCount® NXT, from PerkinElmer Inc.) after adding 50 μL of Microscint™ 20 scintillation fluid (from PerkinElmer Inc.) to each well of the filter plates. The radioactivity from non-specific binding was determined by replacing the compound with 10 μM of ramatroban (BAY-u3405, from Cayman Chemical Company) in the reaction mixtures. The radioactivity bound to the platelets in the absence of compound (total binding) was determined by replacing the compound with 0.25% of DMSO in the reaction mixture. Specific binding data were obtained by subtracting the radioactivity of non-specific binding from each binding data.
as §1

SMILES: CN([C@@H]1CCCc2c(OCC(=O)O)cccc21)S(=O)(=O)c1cc(C(C)(C)C)cc(C(C)(C)C)c1 [Example 1-2, {(R)-5-[(3,5-di-tert-butyl-benzenesulfonyl)-methyl-amino]-5,6,7,8-tetrahydro-naphthalen-1-yloxy}-acetic acid]
IC50 (human CRTH2): 177 nM
IC50 [1]: > 10000 nM

SMILES: COc1cc(C(F)(F)F)cc(S(=O)(=O)N(C)[C@@H]2CCCc3c(OCC(=O)O)cccc32)c1 [Example 1-4, {(R)-5-[(3-methoxy-5-trifluoromethyl-benzenesulfonyl)-methyl-amino]-5,6,7,8-tetrahydro-naphthalen-1-yloxy}-acetic acid]
IC50 (human CRTH2): 110 nM
IC50 [1]: > 10000 nM

SMILES: CN([C@@H]1CCCc2c(OCC(=O)O)cccc21)S(=O)(=O)c1cc(Br)cc(C(F)(F)F)c1 [Example 1-5, {(R)-5-[(3-bromo-5-trifluoromethyl-benzenesulfonyl)-methyl-amino]-5,6,7,8-tetrahydro-naphthalen-1-yloxy}-acetic acid]
IC50 (human CRTH2): 74.2 nM
IC50 [1]: > 10000 nM

SMILES: CN([C@@H]1CCCc2c(OCC(=O)O)cccc21)S(=O)(=O)c1cc(N2CCCC2)cc(C(F)(F)F)c1 [Example 4-1, {(R)-5-[methyl-(3-pyrrolidin-1-yl-5-trifluoromethyl-benzenesulfonyl)-amino]-5,6,7,8-tetrahydro-naphthalen-1-yloxy}-acetic acid]
IC50 (human CRTH2): 127 nM
IC50 [1]: > 10000 nM

SMILES: CC(C)N(C)c1cc(C(F)(F)F)cc(S(=O)(=O)N(C)[C@@H]2CCCc3c(OCC(=O)O)cccc32)c1 [Example 4-3, ((R)-5-{[3-(isopropyl-methyl-amino)-5-trifluoromethyl-benzenesulfonyl]-methyl-amino}-5,6,7,8-tetrahydro-naphthalen-1-yloxy)-acetic acid]
IC50 (human CRTH2): 410 nM
IC50 [1]: > 10000 nM

SMILES: CC(=O)c1cc(C(F)(F)F)cc(S(=O)(=O)N(C)[C@@H]2CCCc3c(OCC(=O)O)cccc32)c1 [Example 6-1, {(R)-5-[(3-acetyl-5-trifluoromethyl-benzenesulfonyl)-methyl-amino]-5,6,7,8-tetrahydro-naphthalen-1-yloxy}-acetic acid]
IC50 (human CRTH2): 78.2 nM
IC50 [1]: > 10000 nM

SMILES: CN([C@@H]1CCCc2c(OCC(=O)O)cccc21)S(=O)(=O)c1cc(C(F)(F)F)cc(C2(C)CC2)c1 [Example 7-1, ((R)-5-{methyl-[3-(1-methyl-cyclopropyl)-5-trifluoromethyl-benzenesulfonyl]-amino}-5,6,7,8-tetrahydro-naphthalen-1-yloxy)-acetic acid]
IC50 (human CRTH2): 76.6 nM
IC50 [1]: > 10000 nM

SMILES: CC(C)c1cc(C(F)(F)F)cc(S(=O)(=O)N(C)[C@@H]2CCCc3c(OCC(=O)O)cccc32)c1 [Example 8-1, {(R)-5-[(3-isopropyl-5-trifluoromethyl-benzenesulfonyl)-methyl-amino]-5,6,7,8-tetrahydro-naphthalen-1-yloxy}-acetic acid]
IC50 (human CRTH2): 91.2 nM
IC50 [1]: > 10000 nM

Stronger by IC50 (human CRTH2), values ahead:

IC50 (human CRTH2): 18.3 nM
IC50 [1]: > 10000 nM
SMILES: CN([C@@H]1CCCc2c(OCC(=O)O)cccc21)S(=O)(=O)c1cc(C(F)(F)F)cc(C(F)(F)F)c1 [Example 1-6, {(R)-5-[(3,5-bis-trifluoromethyl-benzenesulfonyl)-methyl-amino]-5,6,7,8-tetrahydro-naphthalen-1-yloxy}-acetic acid]

IC50 (human CRTH2): 16.5 nM
IC50 [1]: > 10000 nM
SMILES: CN([C@@H]1CCCc2c(OCC(=O)O)cccc21)S(=O)(=O)c1cc(C(C)(F)F)cc(C(F)(F)F)c1 [Example 5-1, ((R)-5-{[3-(1,1-difluoro-ethyl)-5-trifluoromethyl-benzenesulfonyl]-methyl-amino}-5,6,7,8-tetrahydro-naphthalen-1-yloxy)-acetic acid]

IC50 (human CRTH2): 15.7 nM
IC50 [1]: > 10000 nM
SMILES: CN([C@@H]1CCCc2c(OCC(=O)O)cccc21)S(=O)(=O)c1cc(S(C)(=O)=O)cc(S(C)(=O)=O)c1 [Example 1-3, {(R)-5-[(3,5-bis-methanesulfonyl-benzenesulfonyl)-methyl-amino]-5,6,7,8-tetrahydro-naphthalen-1-yloxy}-acetic acid]

IC50 (human CRTH2): 6.8 nM
IC50 [1]: > 10000 nM
SMILES: CC(C)[S+]([O-])c1cc(C(F)(F)F)cc(S(=O)(=O)N(C)[C@@H]2CCCc3c(OCC(=O)O)cccc32)c1 (stereo partly drawn) [Example 2-1, ((R)-5-{methyl-[3-(propane-2-sulfinyl)-5-trifluoromethyl-benzenesulfonyl]-amino}-5,6,7,8-tetrahydro-naphthalen-1-yloxy)-acetic acid]

IC50 (human CRTH2): 3.6 nM
IC50 [1]: > 10000 nM
SMILES: CC(C)S(=O)(=O)c1cc(C(F)(F)F)cc(S(=O)(=O)N(C)[C@@H]2CCCc3c(OCC(=O)O)cccc32)c1 [Example 3-2, ((R)-5-{methyl-[3-(propane-2-sulfonyl)-5-trifluoromethyl-benzenesulfonyl]-amino}-5,6,7,8-tetrahydro-naphthalen-1-yloxy)-acetic acid]

IC50 (human CRTH2): 3.4 nM
IC50 [1]: > 10000 nM
SMILES: CN([C@@H]1CCCc2c(OCC(=O)O)cccc21)S(=O)(=O)c1cc(C(F)(F)F)cc(S(=O)(=O)C(C)(C)C)c1 [Example 3-3, ((R)-5-{methyl-[3-(2-methyl-propane-2-sulfonyl)-5-trifluoromethyl-benzenesulfonyl]-amino}-5,6,7,8-tetrahydro-naphthalen-1-yloxy)-acetic acid]

IC50 (human CRTH2): 2.9 nM
IC50 [1]: > 10000 nM
SMILES: CN([C@@H]1CCCc2c(OCC(=O)O)cccc21)S(=O)(=O)c1cc(C(F)(F)F)cc(S(=O)(=O)C2CCCC2)c1 [Example 3-1, {(R)-5-[(3-cyclopentanesulfonyl-5-trifluoromethyl-benzenesulfonyl)-methyl-amino]-5,6,7,8-tetrahydro-naphthalen-1-yloxy}-acetic acid]
